The results in this text go back to patent publication US9763957B2, “Autotaxin inhibitors” (Novartis AG, priority 2013, dated 2017).

The assay addresses Recombinant human ATX (Homo sapiens (Human), UniProt Q13822). The assay can be described thus: ATX inhibition assay (choline release, Amplex Red fluorescence). To be noted: ATX 10 nM, LPC 18:1 10 μM, 37° C., 20 min pre-incubation; mean of n≧2. The assay is classed as biochemical. On the procedure:
Reagents—LPC (oleoyl (18:1)) was purchased from Avanti Polar Lipids (Alabaster, Ala.) and solubilized in methanol to 20 mM. Amplex Red was obtained from Invitrogen Life Technologies (Paisley, UK) and dissolved in DMSO to 10 mM. Choline oxidase and horseradish peroxidase (HRP) were obtained from Sigma Aldrich (Dorset, UK) and dissolved in HBSS to 20 U/ml and 200 U/ml respectively. All reagents were stored at −20° C. in single use aliquots. All experimental measurements were performed in assay buffer made up immediately prior to use (HBSS, 0.01% BSA essentially fatty acid free).
PerkinElmer EnVision (Fluorescence Intensity/Absorbance Monochromator) or Tecan Infinite 200 PRO series plate reader was used to detect change in fluorescent intensity.
Assessing ATX inhibition—ATX activity was determined by measurement of released choline in reactions containing ATX (10 nM), choline oxidase (0.1 U/ml), HRP (100 U/ml), amplex red (50 μM) and LPC 18:1 (10 μM). Compounds of the invention were prepared as 10 point serial dilutions from 1 μM in duplicate and pre-incubated with ATX at 37° C. for 20 minutes prior to the addition of remaining reagents. The liberated choline was measured from changes in fluorescence intensity (λex 530 nm, λem 590 nm) of the product resurofin at 37° C. every 2 minutes over a 40-minute period. ATX activity was measured as a slope of the linear portion of the progress curve, typically between 14 to 24 minutes.
Data analysis—Slope data was exported to Graphpad prism (Graphpad software, San Diego, Calif.) where data was fitted to equation 1. Y=Bottom+(Top-Bottom)/(1+10^((Log IC50−X)*HillSlope)) Equation 1: […]
A word on the IC50: it is the concentration at which inhibition is half-maximal. For the compound `Cc1nnn(Cc2cc(C(F)(F)F)ccc2/C=C/C(=O)N2CCN(Cc3cnn(C)c3)C[C@H]2C)n1` [Example 70, (R,E)-3-(2-((5-Methyl-2H-tetrazol-2-yl)methyl)-4-(trifluoromethyl)phenyl)-1-(2-methyl-4-((1-methyl-1H-pyrazol-4-yl)methyl)piperazin-1-yl)prop-2-en-1-one], the IC50 came to 0.0042 µM.

Turning to `Cc1nnn(Cc2cc(Cl)ccc2/C=C/C(=O)N2CCC(Oc3ccccc3C(=O)N(C)C)CC2)n1` [Example 49.13, (E)-2-((1-(3-(4-Chloro-2-((5-methyl-2H-tetrazol-2-yl)methyl)phenyl)acryloyl)piperidin-4-yl)oxy)-N,N-dimethyl benzamide], the IC50 came to 0.017 µM.

Regarding `Cc1nnn(Cc2cc(Cl)ccc2COC(=O)N2CCC(c3ncc(C)o3)CC2)n1` [Example 48, 4-Chloro-2-((5-methyl-2H-tetrazol-2-yl)methyl)benzyl 4-(5-methyloxazol-2-yl)piperidine-1-carboxylate], the IC50 was 0.07 µM.

In the case of `Cc1nnn(Cc2cc(C(F)(F)F)ccc2/C=C/C(=O)N2CCN(Cc3cnn(C)c3)CC2)n1` [Example 53, (E)-1-(4-((1-Methyl-1H-pyrazol-4-yl)methyl)piperazin-1-yl)-3-(2-((5-methyl-2H-tetrazol-2-yl)methyl)-4-(trifluoromethyl)phenyl)prop-2-en-1-one], the IC50 came out at 0.002 µM.

For `Cc1nnn(Cc2cc(C(F)(F)F)ccc2/C=C/C(=O)N2CCC[C@H]2C)n1` [Example 117, (R,E)-3-(2-((5-Methyl-2H-tetrazol-2-yl)methyl)-4-(trifluoromethyl)phenyl)-1-(2-methylpyrrolidin-1-yl)prop-2-en-1-one], the IC50 was 0.263 µM.

As for `Cc1noc(Cc2cc(Cl)ccc2/C=C/C(=O)N2CCC(Cc3nnc(C)o3)CC2)n1` [Example 21, (E)-3-(4-Chloro-2-((3-methyl-1,2,4-oxadiazol-5-yl)methyl)phenyl)-1-(4-((5-methyl-1,3,4-oxadiazol-2-yl)methyl)piperidin-1-yl)prop-2-en-1-one], the 50% inhibitory concentration (IC50) is 0.208 µM.

For `Cc1noc(C2CCCCN2C(=O)/C=C/c2ccc(Cl)cc2Cn2nnc(C)n2)n1` (single isomer, unassigned) [Example 23a, (R)- or (S)-(E)-3-(4-Chloro-2-((5-methyl-2H-tetrazol-2-yl)methyl)phenyl)-1-(2-(3-methyl-1,2,4-oxadiazol-5-yl)piperidin-1-yl)prop-2-en-1-one], the IC50 worked out at 0.0095 µM.

In the case of `Cc1nnn(Cc2cc(Cl)ccc2/C=C/C(=O)N2CCN(c3ncccc3C#N)CC2)n1` [Example 49.28, (E)-2-(4-(3-(4-Chloro-2-((5-methyl-2H-tetrazol-2-yl)methyl)phenyl)acryloyl)piperazin-1-yl)nicotinonitrile], the IC50 worked out at 0.01 µM.

`CCOC(=O)C1CCN(C(=O)/C=C/c2ccc(Cl)cc2Cn2nnc(C)n2)CC1` [Example 49.9, (E)-ethyl 1-(3-(4-Chloro-2-((5-methyl-2H-tetrazol-2-yl)methyl)phenyl)acryloyl)piperidine-4-carboxylate]: the IC50 was 0.0059 µM.

With `COc1ccc(/C=C/C(=O)N2CCC(Cc3nnc(C)o3)CC2)c(Cn2nnc(C)n2)c1` [Example 83, (E)-3-(4-Methoxy-2-((5-methyl-2H-tetrazol-2-yl)methyl)phenyl)-1-(4-((5-methyl-1,3,4-oxadiazol-2-yl)methyl)piperidin-1-yl)prop-2-en-1-one], the IC50 is 0.846 µM.

With `Cc1nnn(Cc2cc(Cl)ccc2/C=C/C(=O)N2CCC(c3noc(C)n3)CC2)n1` [Example 19, (E)-3-(4-Chloro-2-((5-methyl-2H-tetrazol-2-yl)methyl)phenyl)-1-(4-(5-methyl-1,2,4-oxadiazol-3-yl)piperidin-1-yl)prop-2-en-1-one], the IC50 was found to be 0.031 µM.

With `Cc1nnn(Cc2cc(C(F)(F)F)ccc2CCC(=O)N2CCC(CCCCCc3c[nH]nn3)CC2)n1` [Example 153, 1-(4-(5-(1H-1,2,3-Triazol-4-yl)pentyl)piperidin-1-yl)-3-(2-((5-methyl-2H-tetrazol-2-yl)methyl)-4-(trifluoromethyl)phenyl)propan-1-one], the IC50 was determined as 0.002 µM.

As to `Cc1cc(CN2CCN(C(=O)/C=C/c3ccc(C(F)(F)F)cc3Cn3nnc(C)n3)CC2)on1` [Example 101, (E)-3-(2-((5-Methyl-2H-tetrazol-2-yl)methyl)-4-(trifluoromethyl)phenyl)-1-(4-((3-methylisoxazol-5-yl)methyl)piperazin-1-yl)prop-2-en-1-one], the IC50 turned out to be 0.005 µM.

For `Cc1nnn(Cc2cc(Cl)ccc2/C=C/C(=O)N2CCC(Cn3nnc(C)n3)CC2)n1` [Example 109, (E)-3-(4-Chloro-2-((5-methyl-2H-tetrazol-2-yl)methyl)phenyl)-1-(4-((5-methyl-2H-tetrazol-2-yl)methyl)piperidin-1-yl)prop-2-en-1-one], the IC50 worked out at 0.016 µM.

As to `Cc1cc(CN2CCN(C(=O)/C=C/c3ccc(Cl)cc3Cn3nnc(C)n3)CC2)on1` [Example 140.2, (E)-3-(4-Chloro-2-((5-methyl-2H-tetrazol-2-yl)methyl)phenyl)-1-(4-((3-methylisoxazol-5-yl)methyl)piperazin-1-yl)prop-2-en-1-one], the IC50 is 0.064 µM.

As to `Cc1nnn(Cc2cc(Cl)ccc2/C=C/C(=O)N2CC(Oc3ccc(F)cc3)C2)n1` [Example 130, (E)-3-(4-Chloro-2-((5-methyl-2H-tetrazol-2-yl)methyl)phenyl)-1-(3-(4-fluorophenoxy)azetidin-1-yl)prop-2-en-1-one], the IC50 amounted to 0.17 µM.

Take `COCC1CCN(C(=O)/C=C/c2ccc(Cl)cc2Cn2nnc(C)n2)CC1` [Example 49.24, (E)-3-(4-Chloro-2-((5-methyl-2H-tetrazol-2-yl)methyl)phenyl)-1-(4-(methoxymethyl)piperidin-1-yl)prop-2-en-1-one]: the IC50 was determined as 0.045 µM.

For the compound `Cc1nnn(Cc2cc(C(F)(F)F)ccc2/C=C/C(=O)N2CCCC[C@H]2C(F)(F)F)n1` [Example 121, (S,E)-3-(2-((5-Methyl-2H-tetrazol-2-yl)methyl)-4-(trifluoromethyl)phenyl)-1-(2-(trifluoromethyl)piperidin-1-yl)prop-2-en-1-one], the IC50 was found to be 0.0069 µM.

`CNC(=O)[C@@H]1CC(F)(F)CN1C(=O)/C=C/c1ccc(C(F)(F)F)cc1Cn1nnc(C)n1` [Example 91, (S,E)-4,4-Difluoro-N-methyl-1-(3-(2-((5-methyl-2H-tetrazol-2-yl)methyl)-4-(trifluoromethyl)phenyl)acryloyl)pyrrolidine-2-carboxamide]: the IC50 was 0.16 µM.

On to `COC(=O)C1COCCN1C(=O)/C=C/c1ccc(Cl)cc1Cn1nnc(C)n1` (centres unmarked) [Example 49.23, (E)-Methyl 4-(3-(4-Chloro-2-((5-methyl-2H-tetrazol-2-yl)methyl)phenyl)acryloyl)morpholine-3-carboxylate], for which the IC50 stood at 0.078 µM.

`Cc1cc(CC(=O)N(C)C2CCN(C(=O)/C=C/c3ccc(C(F)(F)F)cc3Cn3nnc(C)n3)CC2)on1` [Example 95, (E)-N-Methyl-N-(1-(3-(2-((5-methyl-2H-tetrazol-2-yl)methyl)-4-(trifluoromethyl)phenyl)acryloyl)piperidin-4-yl)-2-(3-methylisoxazol-5-yl)acetamide]: the IC50 was determined as 0.025 µM.

Consider `Cc1nnn(Cc2cc(Cl)ccc2/C=C/C(=O)N2CCCC(c3nc(C(C)C)no3)C2)n1` (racemic) [Example 34, (rac)-(E)-3-(4-Chloro-2-((5-methyl-2H-tetrazol-2-yl)methyl)phenyl)-1-(3-(3-isopropyl-1,2,4-oxadiazol-5-yl)piperidin-1-yl)prop-2-en-1-one], for which the IC50 was 0.029 µM.

Turning to `Cc1nnn(Cc2cc(Cl)ccc2/C=C/C(=O)N2CCC(CCO)CC2)n1` [Example 49.6, (E)-3-(4-Chloro-2-((5-methyl-2H-tetrazol-2-yl)methyl)phenyl)-1-(4-(2-hydroxyethyl)piperidin-1-yl)prop-2-en-1-one], the IC50 came out at 0.11 µM.

For `Cc1nnn(Cc2cc(Cl)ccc2/C=C/C(=O)N2CCCCC2c2nc(C(C)C)no2)n1` (racemic) [Example 30, (rac)-(E)-3-(4-Chloro-2-((5-methyl-2H-tetrazol-2-yl)methyl)phenyl)-1-(2-(3-isopropyl-1,2,4-oxadiazol-5-yl)piperidin-1-yl)prop-2-en-1-one], the IC50 was determined as 0.011 µM.

In the case of `Cc1nnn(Cc2cc(Cl)ccc2/C=C/C(=O)N2CCC(Cc3nnc(CN4CCOCC4)o3)CC2)n1` [Example 136, (E)-3-(4-Chloro-2-((5-methyl-2H-tetrazol-2-yl)methyl)phenyl)-1-(4-((5-(morpholinomethyl)-1,3,4-oxadiazol-2-yl)methyl)piperidin-1-yl)prop-2-en-1-one], the IC50 was 0.032 µM.

On to `Cc1nnn(Cc2cc(C(F)(F)F)ccc2/C=C/C(=O)N2CCOCC2C(F)(F)F)n1` (centres unmarked) [Example 142, (E)-3-(2-((5-Methyl-2H-tetrazol-2-yl)methyl)-4-(trifluoromethyl)phenyl)-1-(3-(trifluoromethyl)morpholino)prop-2-en-1-one], for which the IC50 came out at 0.012 µM.
